Results: paper doi:10.1101/2024.08.19.608619, “Discovery of potent SARS-CoV-2 nsp3 macrodomain inhibitors uncovers lack of translation to cellular antiviral response” (bioRxiv, 2024)
Values joined by “and” are separate entries in the source; they are usually repeats but may differ in a detail not shown here. Identical values can stand only once.

Experiments:
hERG = hERG (Homo sapiens, UniProt Q12809); experiment: In vitro hERG cardiotoxocity
Source text: Supplement media-1.zip/Cardiotoxicity.csv, table | column: ic50; perc_inhibition_top_conc

Lck kinase (h) = target: T1, Lck kinase (h) (Homo sapiens, UniProt P06239); experiment: In vitro CEREP profiling, Lck kinase (h); assay type: biochemical; details: test compound concentration 10 uM; Enzyme and Cell-based assays
T1 construct: purchased Eurofins Cerep (SafetyScreen44), recognised from the panel format
T1 sequence (P06239 whole entry): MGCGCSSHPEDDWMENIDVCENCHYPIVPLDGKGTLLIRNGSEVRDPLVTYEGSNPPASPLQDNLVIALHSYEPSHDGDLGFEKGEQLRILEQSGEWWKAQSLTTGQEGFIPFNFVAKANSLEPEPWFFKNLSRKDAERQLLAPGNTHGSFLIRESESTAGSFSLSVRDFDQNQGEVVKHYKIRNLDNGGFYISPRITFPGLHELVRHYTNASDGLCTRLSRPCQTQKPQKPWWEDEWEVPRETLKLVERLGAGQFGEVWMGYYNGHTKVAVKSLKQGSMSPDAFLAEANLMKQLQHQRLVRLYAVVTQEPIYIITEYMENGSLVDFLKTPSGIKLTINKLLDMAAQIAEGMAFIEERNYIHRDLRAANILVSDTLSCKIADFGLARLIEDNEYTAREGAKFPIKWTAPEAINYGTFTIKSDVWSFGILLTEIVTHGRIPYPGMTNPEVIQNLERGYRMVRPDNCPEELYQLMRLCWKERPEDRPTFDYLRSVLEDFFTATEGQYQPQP
Source text: (§1) Supplement media-1.zip/Safety_Panel_Profile.csv, table | column: perc_inhibition

[1] = Hepatic microsomal stability, HLM; assay type: in vitro ADME, human; details: In vitro human liver microsomal stability
COX2(h) = target: T2, COX2(h) (Homo sapiens, UniProt P35354); experiment: In vitro CEREP profiling, COX2(h); assay type: biochemical; details: test compound concentration 10 uM; Enzyme and Cell-based assays
T2 construct: purchased Eurofins Cerep (SafetyScreen44), recognised from the panel format
T2 sequence (P35354 18-604): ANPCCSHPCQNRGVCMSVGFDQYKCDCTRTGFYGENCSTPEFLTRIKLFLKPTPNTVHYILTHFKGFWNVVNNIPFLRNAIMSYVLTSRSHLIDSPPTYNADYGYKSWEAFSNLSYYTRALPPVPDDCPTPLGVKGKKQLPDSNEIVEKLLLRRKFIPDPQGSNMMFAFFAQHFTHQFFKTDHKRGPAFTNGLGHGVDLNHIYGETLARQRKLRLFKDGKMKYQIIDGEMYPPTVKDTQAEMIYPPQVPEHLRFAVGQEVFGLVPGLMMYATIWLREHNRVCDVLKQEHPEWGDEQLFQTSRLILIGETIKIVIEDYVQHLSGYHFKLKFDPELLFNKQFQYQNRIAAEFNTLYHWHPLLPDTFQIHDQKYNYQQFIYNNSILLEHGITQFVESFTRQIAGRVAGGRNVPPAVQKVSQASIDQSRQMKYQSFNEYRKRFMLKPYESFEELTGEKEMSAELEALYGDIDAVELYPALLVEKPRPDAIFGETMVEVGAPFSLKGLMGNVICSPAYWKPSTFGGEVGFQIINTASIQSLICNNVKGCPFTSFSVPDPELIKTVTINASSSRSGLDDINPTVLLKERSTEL
Source text: as §1

alpha2A (h) = target: T3, alpha2A (h) (Homo sapiens, UniProt P08913); experiment: In vitro CEREP profiling, alpha2A (h) (antagonist radioligand); assay type: binding; details: test compound 10 uM
T3 construct: purchased Eurofins Cerep (SafetyScreen44), recognised from the panel format
T3 sequence (P08913 1-465): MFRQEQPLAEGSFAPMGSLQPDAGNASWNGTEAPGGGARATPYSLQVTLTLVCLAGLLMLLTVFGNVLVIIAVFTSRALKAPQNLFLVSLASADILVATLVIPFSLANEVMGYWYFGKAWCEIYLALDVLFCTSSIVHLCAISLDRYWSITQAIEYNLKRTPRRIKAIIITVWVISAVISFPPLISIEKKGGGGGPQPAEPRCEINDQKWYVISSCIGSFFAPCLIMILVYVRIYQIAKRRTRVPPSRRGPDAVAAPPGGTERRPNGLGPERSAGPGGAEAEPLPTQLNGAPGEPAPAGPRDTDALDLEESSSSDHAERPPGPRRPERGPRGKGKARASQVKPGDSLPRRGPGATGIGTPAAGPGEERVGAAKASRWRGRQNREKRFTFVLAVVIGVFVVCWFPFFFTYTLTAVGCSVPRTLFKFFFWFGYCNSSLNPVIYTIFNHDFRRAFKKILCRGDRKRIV
Source text: as §1

Vero E6/TMPRSS2 = Vero E6/TMPRSS2 cytotoxicity with P-gp inhibitor; assay type: cell-based
Source text: Supplement media-1.zip/Cytotoxicity.csv, table | column: cc10; cc50; perc_min_measured; perc_max_measured

[2] = target: T4, Potassium Channel hERG (human) (Homo sapiens, UniProt Q12809); experiment: In vitro CEREP profiling, Potassium Channel hERG (human)- [3H] Dofetilide; assay type: binding; details: test compound concentration 10 uM
T4 construct: purchased Eurofins Cerep (SafetyScreen44), recognised from the panel format
T4 sequence (Q12809 whole entry): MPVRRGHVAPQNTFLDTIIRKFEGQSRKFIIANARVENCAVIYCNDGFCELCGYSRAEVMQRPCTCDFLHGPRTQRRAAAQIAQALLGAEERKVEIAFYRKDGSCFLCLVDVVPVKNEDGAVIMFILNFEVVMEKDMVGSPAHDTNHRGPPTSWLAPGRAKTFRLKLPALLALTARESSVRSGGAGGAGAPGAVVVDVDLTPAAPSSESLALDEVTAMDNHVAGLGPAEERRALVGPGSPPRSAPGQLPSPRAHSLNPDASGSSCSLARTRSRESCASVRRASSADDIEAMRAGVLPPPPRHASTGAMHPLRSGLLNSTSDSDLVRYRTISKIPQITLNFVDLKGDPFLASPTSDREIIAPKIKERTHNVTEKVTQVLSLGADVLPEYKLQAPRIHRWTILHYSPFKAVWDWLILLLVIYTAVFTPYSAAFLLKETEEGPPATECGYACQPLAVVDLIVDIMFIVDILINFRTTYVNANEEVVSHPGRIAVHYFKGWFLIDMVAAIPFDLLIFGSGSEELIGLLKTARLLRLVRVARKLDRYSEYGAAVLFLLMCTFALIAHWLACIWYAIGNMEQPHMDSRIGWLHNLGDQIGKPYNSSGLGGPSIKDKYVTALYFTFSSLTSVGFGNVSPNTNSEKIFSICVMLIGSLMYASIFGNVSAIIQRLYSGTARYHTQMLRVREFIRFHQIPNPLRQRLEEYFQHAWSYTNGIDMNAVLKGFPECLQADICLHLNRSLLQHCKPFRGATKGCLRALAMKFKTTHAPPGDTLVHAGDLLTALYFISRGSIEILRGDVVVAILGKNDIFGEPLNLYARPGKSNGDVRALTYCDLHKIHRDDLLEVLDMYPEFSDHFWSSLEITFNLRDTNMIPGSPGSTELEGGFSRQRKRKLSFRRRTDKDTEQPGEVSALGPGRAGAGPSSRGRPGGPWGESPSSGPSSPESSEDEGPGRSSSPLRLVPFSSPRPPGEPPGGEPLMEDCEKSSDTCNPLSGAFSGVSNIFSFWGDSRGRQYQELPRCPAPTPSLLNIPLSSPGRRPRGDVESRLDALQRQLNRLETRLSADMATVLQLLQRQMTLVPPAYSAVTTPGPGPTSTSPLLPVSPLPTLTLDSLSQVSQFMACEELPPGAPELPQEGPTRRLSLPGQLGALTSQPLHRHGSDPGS
Source text: as §1

[3] = In vitro rat hepatocyte stability; assay type: in vitro ADME
Source text: Supplement media-1.zip/Hepatocyte_Stability.csv, table | column: clint; t_half

CYP = CYP inhibition; assay type: in vitro ADME; details: In vitro CYP inhibition pooled; for potency: potency class in words
Source text: Supplement media-1.zip/CYP_Inhibition.csv, table | column: ic50; potency

PDE4D2 (h) = target: T5, PDE4D2 (h) (Homo sapiens, UniProt Q08499); experiment: In vitro CEREP profiling, PDE4D2 (h); assay type: biochemical; details: test compound concentration 10 uM; Enzyme and Cell-based assays
T5 construct: purchased Eurofins Cerep (SafetyScreen44), recognised from the panel format
T5 sequence (Q08499 303-809): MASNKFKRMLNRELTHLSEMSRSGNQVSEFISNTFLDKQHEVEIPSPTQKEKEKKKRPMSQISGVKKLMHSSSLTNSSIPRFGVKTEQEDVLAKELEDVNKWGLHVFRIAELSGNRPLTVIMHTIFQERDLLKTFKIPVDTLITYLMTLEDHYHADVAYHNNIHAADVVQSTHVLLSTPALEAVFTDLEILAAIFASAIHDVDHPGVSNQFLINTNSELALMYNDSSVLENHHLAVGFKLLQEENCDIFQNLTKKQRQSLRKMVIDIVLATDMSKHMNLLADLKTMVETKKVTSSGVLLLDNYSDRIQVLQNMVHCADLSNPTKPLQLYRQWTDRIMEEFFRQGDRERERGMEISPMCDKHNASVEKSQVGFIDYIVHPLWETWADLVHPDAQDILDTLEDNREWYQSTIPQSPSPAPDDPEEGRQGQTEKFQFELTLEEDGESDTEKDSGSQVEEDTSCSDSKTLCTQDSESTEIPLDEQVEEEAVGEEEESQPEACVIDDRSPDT
Source text: as §1

PDE3A (h) = target: T6, PDE3A (h) (Homo sapiens, UniProt Q14432); experiment: In vitro CEREP profiling, PDE3A (h); assay type: biochemical; details: test compound concentration 10 uM; Enzyme and Cell-based assays
T6 construct: purchased Eurofins Cerep (SafetyScreen44), recognised from the panel format
T6 sequence (Q14432 whole entry): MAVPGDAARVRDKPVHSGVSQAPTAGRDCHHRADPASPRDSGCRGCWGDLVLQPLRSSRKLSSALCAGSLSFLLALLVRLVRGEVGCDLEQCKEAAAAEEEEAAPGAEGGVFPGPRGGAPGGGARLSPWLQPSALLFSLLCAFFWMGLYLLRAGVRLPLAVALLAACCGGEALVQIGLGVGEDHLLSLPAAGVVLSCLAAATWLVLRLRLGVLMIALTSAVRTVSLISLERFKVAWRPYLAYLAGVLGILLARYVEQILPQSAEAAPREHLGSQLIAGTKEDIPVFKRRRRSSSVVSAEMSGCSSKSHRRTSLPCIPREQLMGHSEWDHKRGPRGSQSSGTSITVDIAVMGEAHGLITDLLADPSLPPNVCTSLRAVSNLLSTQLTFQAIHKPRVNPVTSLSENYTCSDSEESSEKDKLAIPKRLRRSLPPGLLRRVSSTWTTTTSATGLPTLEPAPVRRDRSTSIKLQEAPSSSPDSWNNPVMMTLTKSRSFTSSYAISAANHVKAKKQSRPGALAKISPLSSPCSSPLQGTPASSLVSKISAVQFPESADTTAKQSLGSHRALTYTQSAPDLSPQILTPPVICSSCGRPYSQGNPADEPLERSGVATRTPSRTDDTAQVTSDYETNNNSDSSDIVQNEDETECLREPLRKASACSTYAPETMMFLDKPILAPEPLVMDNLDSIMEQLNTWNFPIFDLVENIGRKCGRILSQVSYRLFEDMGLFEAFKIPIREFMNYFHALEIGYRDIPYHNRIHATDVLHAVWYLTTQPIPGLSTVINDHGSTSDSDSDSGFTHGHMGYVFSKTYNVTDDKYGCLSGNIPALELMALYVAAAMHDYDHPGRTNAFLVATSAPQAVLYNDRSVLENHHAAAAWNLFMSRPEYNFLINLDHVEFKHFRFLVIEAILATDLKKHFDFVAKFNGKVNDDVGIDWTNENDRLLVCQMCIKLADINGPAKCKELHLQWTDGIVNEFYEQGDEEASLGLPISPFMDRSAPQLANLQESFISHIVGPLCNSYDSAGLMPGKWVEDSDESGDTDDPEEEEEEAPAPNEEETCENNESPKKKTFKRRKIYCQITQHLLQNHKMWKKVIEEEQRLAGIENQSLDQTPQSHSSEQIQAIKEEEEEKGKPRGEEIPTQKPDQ
Source text: as §1

KV channel = experiment: In vitro CEREP profiling, KV channel (antagonist radioligand); assay type: binding; details: test compound concentration 10 uM
Source text: as §1

[4] = system: Ca2+ channel (L, dihydropyridine site); experiment: In vitro CEREP profiling, Ca2+ channel (L, dihydropyridine site) (antagonist radioligand); assay type: binding; details: test compound concentration 10 uM
Source text: as §1

Na+ channel (site 2) = experiment: In vitro CEREP profiling, Na+ channel (site 2) (antagonist radioligand); assay type: binding; details: test compound concentration 10 uM
Source text: as §1

beta1 (h) = target: T7, beta1 (h) (Homo sapiens, UniProt P08588); experiment: In vitro CEREP profiling, beta1 (h) (agonist radioligand); assay type: binding; details: test compound 10 uM
T7 construct: purchased Eurofins Cerep (SafetyScreen44), recognised from the panel format
T7 sequence (P08588 whole entry): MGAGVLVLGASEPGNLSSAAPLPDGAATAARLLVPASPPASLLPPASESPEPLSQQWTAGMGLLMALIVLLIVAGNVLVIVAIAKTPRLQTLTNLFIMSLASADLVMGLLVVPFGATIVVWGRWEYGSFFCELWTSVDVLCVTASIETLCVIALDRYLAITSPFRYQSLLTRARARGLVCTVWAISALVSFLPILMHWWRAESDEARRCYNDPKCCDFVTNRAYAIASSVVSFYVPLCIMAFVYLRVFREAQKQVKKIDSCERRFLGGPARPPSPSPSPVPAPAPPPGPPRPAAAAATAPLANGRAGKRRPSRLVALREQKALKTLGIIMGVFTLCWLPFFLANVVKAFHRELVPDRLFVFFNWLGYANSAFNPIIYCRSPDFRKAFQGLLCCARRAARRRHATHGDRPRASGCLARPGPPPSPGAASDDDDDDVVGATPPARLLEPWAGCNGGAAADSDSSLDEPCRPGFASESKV
Source text: as §1

MERS-CoV = experiment: microbe, parasite or virus in culture; assay type: cell-based; details: Vero E6/TMPRSS2 MERS-CoV antiviral effect with P-gp inhibitor

Sequence of hERG (Q12809 whole entry): as the sequence (Q12809 whole entry) above

SMILES: COc1ccc([C@H](Cc2nnn[nH]2)NC(=O)c2ncnc3[nH]ccc23)cc1 [ASAP-0015381]
- perc_inhibition_top_conc (hERG; at top test concentration 30 uM): 27.0%
- IC50 (hERG; top test concentration 30 uM): > 30 µM
- perc_inhibition: % inhibition of control enzyme activity, Lck kinase (h) (Lck kinase (h)): 4%
- clint [1]: 2.0 µL/min/mg
- perc_remaining [1]: 105.597%
- t_half [1]: 1085.642 min
- perc_remaining_no_cofactor ([1]; no cofactor): 84.68%
- perc_inhibition: % inhibition of control enzyme activity, COX2(h) (COX2(h)): -1%
- perc_inhibition (% inhibition of the binding of a ligand specific for each target) (alpha2A (h)): -1%
- CC50 (Vero E6/TMPRSS2): > 5 µM
- cc10 (Vero E6/TMPRSS2): > 5.0 µM
- perc_max_measured (Vero E6/TMPRSS2; highest measured response of the dose series): 119.979%
- perc_min_measured (Vero E6/TMPRSS2; lowest measured response of the dose series): 89.804%
- perc_inhibition (% inhibition of the binding of a ligand specific for each target) [2]: 5%
- clint [3]: < 3.0 uL/min/1E6 cells
- t_half [3]: > 231.0 min
- IC50 (CYP; isoform 1A2): > 50 µM
- potency (CYP; isoform 1A2): weak
- IC50 (CYP; isoform 2C9): 31.2 µM
- potency (CYP; isoform 2C9): weak
- IC50 (CYP; isoform 2C19): > 50 µM
- potency (CYP; isoform 2C19): weak
- IC50 (CYP; isoform 2D6): > 50 µM
- potency (CYP; isoform 2D6): weak
- IC50 (CYP; isoform 3A4): 25.4 µM
- potency (CYP; isoform 3A4): weak
- perc_inhibition: % inhibition of control enzyme activity, PDE4D2 (h) (PDE4D2 (h)): 41%
- perc_inhibition: % inhibition of control enzyme activity, PDE3A (h) (PDE3A (h)): 62%
- perc_inhibition (% inhibition of the binding of a ligand specific for each target) (KV channel): -1%
- perc_inhibition (% inhibition of the binding of a ligand specific for each target) [4]: -22%
- perc_inhibition (% inhibition of the binding of a ligand specific for each target) (Na+ channel (site 2)): -3%
- perc_inhibition (% inhibition of the binding of a ligand specific for each target) (beta1 (h)): -3%
- perc_max_measured (MERS-CoV; maximum measured response of dose series): 110.958% and 111.344%
- perc_min_measured (MERS-CoV; minimum measured response of dose series): 85.891% and 86.764%
- EC50 (MERS-CoV; read-out: ec50): > 5 µM
- EC90 (MERS-CoV; read-out: ec90): > 5 µM
